Measurements from patent US11230526B1, “Cylcoalkenyl derivatives useful as agonists of the GPR120 and/or GPR40 receptors” (Janssen Pharmaceutica NV, priority 2018, dated 2022).
Several values for one entry are separate records, joined by “and”; a condition that tells them apart may be missing. Equal values may be shown once.

How the values were obtained:
Format in all cases: cell-based
Human GPR120 short form = target: T1, Human GPR120 short form (Homo sapiens, UniProt Q5NUL3); experiment: Human GPR120 calcium flux assay, Procedure Calcium B (4200 cells/well)
T1 construct: expressed in transfected cells
T1 sequence (Q5NUL3 1-361): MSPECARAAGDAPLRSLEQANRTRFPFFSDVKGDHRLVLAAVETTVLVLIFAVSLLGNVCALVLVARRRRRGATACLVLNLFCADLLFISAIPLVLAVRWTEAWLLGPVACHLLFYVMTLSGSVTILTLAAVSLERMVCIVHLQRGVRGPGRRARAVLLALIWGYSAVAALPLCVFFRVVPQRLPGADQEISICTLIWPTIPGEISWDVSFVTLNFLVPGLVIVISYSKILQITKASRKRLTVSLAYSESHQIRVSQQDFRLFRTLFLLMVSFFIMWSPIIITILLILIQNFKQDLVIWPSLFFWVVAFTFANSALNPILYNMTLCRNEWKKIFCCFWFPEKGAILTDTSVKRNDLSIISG
How it was run: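 Agonist EC50 came from a four-parameter fit of RFU (Fmax−Fmin) read over 300 s on FLIPR. Cells were HEK293 stably transfected with human GPR120 (NM_001195755.1) at 4200 per well, serum-starved 1 h and loaded with Fluo-4 NW dye with probenecid before ligand addition.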

human GPR40 = target: T2, human GPR40 (Homo sapiens, UniProt O14842); experiment: GPR40 calcium flux assay, human GPR40; details: HEK293 cells stably expressing GPR40; table does not say human or rat
T2 construct: expressed in transfected cells
T2 sequence (O14842 whole entry): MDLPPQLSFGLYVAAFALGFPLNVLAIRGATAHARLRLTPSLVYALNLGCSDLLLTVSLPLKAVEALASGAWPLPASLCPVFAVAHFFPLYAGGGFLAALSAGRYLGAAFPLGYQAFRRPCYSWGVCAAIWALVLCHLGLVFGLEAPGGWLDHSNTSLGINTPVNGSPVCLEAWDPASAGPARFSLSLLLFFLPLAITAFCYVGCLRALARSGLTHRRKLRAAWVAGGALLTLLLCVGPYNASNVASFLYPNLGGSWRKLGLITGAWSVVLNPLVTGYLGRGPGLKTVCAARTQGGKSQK
How it was run: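 Cells preincubated 1 h at 37° C. in HBSS, 20 mM HEPES, 0.1% BSA, then Fluo 8 calcium dye 30 min at 37° C. and 15 min at room temperature.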

[1] = target: T3, long form of human GPR120 (Homo sapiens, UniProt Q5NUL3); experiment: Human GPR120 DiscoveRx PathHunter Beta-Arrestin assay, Procedure β-arrestin A
T3 construct: host or cells: PathHunter CHO-K1 GPR120 β-Arrestin Cell Line
T3 sequence (Q5NUL3 1-377 isoform Q5NUL3-1): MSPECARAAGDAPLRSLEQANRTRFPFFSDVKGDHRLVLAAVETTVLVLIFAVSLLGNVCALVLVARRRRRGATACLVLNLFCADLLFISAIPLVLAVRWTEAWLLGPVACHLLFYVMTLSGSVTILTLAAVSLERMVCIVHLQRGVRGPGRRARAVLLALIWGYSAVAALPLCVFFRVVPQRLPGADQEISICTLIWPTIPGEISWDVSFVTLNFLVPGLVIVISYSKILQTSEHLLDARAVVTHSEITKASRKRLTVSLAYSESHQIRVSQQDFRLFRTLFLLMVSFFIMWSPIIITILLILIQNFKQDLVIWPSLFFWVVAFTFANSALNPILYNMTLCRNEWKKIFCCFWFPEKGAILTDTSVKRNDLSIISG
T3 sequence (P32121 whole entry partner): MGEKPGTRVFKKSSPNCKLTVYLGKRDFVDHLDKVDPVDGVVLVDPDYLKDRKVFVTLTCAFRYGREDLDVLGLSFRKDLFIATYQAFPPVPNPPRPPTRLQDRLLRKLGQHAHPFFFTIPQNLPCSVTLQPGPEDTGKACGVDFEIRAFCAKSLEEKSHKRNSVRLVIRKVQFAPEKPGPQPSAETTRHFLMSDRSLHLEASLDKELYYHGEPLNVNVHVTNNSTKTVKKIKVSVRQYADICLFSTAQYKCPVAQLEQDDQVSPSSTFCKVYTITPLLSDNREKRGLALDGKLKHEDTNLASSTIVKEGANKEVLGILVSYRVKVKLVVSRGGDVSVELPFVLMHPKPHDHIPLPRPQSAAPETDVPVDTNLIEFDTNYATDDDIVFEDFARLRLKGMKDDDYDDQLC
How it was run: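 PathHunter CHO-K1 cells expressing long-form human GPR120 (3000/well) were seeded overnight. They were then preincubated 60 min in HBSS with 20 mM HEPES and 0.1% BSA, pH 7.4, and exposed to compound for 90 min at 37 °C. β-Arrestin recruitment was read as β-gal complementation luminescence. EC50 came from % activity versus positive control, Hill slope fixed at 1.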

Row | EC50 (Human GPR120 short form) [nM] | EC50 (human GPR40) | EC50 [1] [nM] | Compound
1 | 500 | 3490 nM | 1340 | Cc1cc(CCC(=O)O)ccc1OCC1=C(c2cncs2)CCC(F)(F)C1 [Compound 548, 3-[4-[(5,5-difluoro-2-thiazol-5-yl-cyclohexen-1-yl)methoxy]-3-methyl-phenyl]Propanoic Acid]
2 | 24 | 4000 nM | 29 | Cc1cc(CCC(=O)O)ccc1OCC1=C(c2ccc(Cl)cc2)CC(F)(F)C1 [Compound 166, 3-[4-[[2-(4-chlorophenyl)-4,4-difluoro-cyclopenten-1-yl]methoxy]-3-methyl-phenyl]Propanoic Acid]
3 | 136 | > 5000 nM | 123 | O=C(O)CCc1ccc(OCC2=C(c3ccc(F)cc3)CCC2)c(F)c1 [Compound 49]
4 | 714 | > 5000 nM | 853 | CCC1CCC(COc2ccc(CCC(=O)O)c(C)c2C)=C(c2ccc(Cl)cc2)C1 (stereo not drawn) [Compound 522, 3-[4-[[2-(4-chlorophenyl)-4-ethyl-cyclohexen-1-yl]methoxy]-2,3-dimethyl-phenyl]Propanoic Acid]
5 | 193 | > 5000 nM | 235 | Cc1cc(CC(C)C(=O)O)ccc1OCC1=C(c2ccc(Cl)cc2)CCC1 (stereo not drawn) [Compound 36, 3-[4-[[2-(4-chlorophenyl)cyclopenten-1-yl]methoxy]-3-methyl-phenyl]-2-methyl-Propanoic Acid]
6 | 42 | > 5000 nM | 32 | Cc1ccc(C2=C(COc3ccc(CCC(=O)O)c(C)c3C)CC(F)(F)C2)cc1F [Compound 172, 3-[4-[[4,4-difluoro-2-(3-fluoro-4-methyl-phenyl)cyclopenten-1-yl]methoxy]-2,3-dimethyl-phenyl]Propanoic Acid]
7 | 83 | > 5000 nM | 161 | Cc1c(CCC(=O)O)ccc(OCC2=C(c3ccccc3)CCC(F)(F)C2)c1C [Compound 537, 3-[4-[(5,5-difluoro-2-phenyl-cyclohexen-1-yl)methoxy]-2,3-dimethyl-phenyl]Propanoic Acid]
8 | 173 | 825 nM | 312 | O=C(O)CCc1ccc(OCC2=C(c3ccc(F)cc3)CCC(F)(F)C2)cc1C(F)(F)F [Compound 489, 3-[4-[[5,5-difluoro-2-(4-fluorophenyl)cyclohexen-1-yl]methoxy]-2-(trifluoromethyl)phenyl]Propanoic Acid]
9 | 125 | > 5000 nM | 359 | Cc1cc(CCC(=O)O)cc(F)c1OCC1=C(c2ccc(F)cc2)CC(F)(F)C1 [Compound 204, 3-[4-[[4,4-difluoro-2-(4-fluorophenyl)cyclopenten-1-yl]methoxy]-3-fluoro-5-methyl-phenyl]Propanoic Acid]
10 | 32 | > 5000 nM | 104 | Cc1cc(CCC(=O)O)ccc1OCC1=C(c2ccc(F)cc2F)CC(F)(F)C1 [Compound 182, 3-[4-[[2-(2,4-difluorophenyl)-4,4-difluoro-cyclopenten-1-yl]methoxy]-3-methyl-phenyl]Propanoic Acid]
11 | 285 | > 5000 nM | 231 | COc1ncc(C2=C(COc3c(F)cc(CCC(=O)O)cc3F)CCC2)cc1F [Compound 224, 3-[3,5-difluoro-4-[[2-(5-fluoro-6-methoxy-3-pyridyl)cyclopenten-1-yl]methoxy]phenyl]Propanoic Acid]
12 | 156 | > 5000 nM | 136 | Cc1ccc(C2=C(COc3ccc(CCC(=O)O)c(C)c3C)CC(F)(F)CC2)cc1F [Compound 529, 3-[4-[[5,5-difluoro-2-(3-fluoro-4-methyl-phenyl)cyclohexen-1-yl]methoxy]-2,3-dimethyl-phenyl]Propanoic Acid]
13 | 118 | 4100 nM | 175 | Cc1cc(CCC(=O)O)ccc1OCC1=C(c2cccs2)CCC(F)(F)C1 [Compound 560, 3-[4-[[5,5-difluoro-2-(2-thienyl)cyclohexen-1-yl]methoxy]-3-methyl-phenyl]Propanoic Acid]
14 | 91 | > 5000 nM | 431 | O=C(O)CCc1cc(F)c(OCC2=C(c3ccc(F)c(F)c3)CC(F)(F)C2)c(F)c1 [Compound 184, 3-[4-[[2-(3,4-difluorophenyl)-4,4-difluoro-cyclopenten-1-yl]methoxy]-3,5-difluoro-phenyl]Propanoic Acid]
15 | 754 | 2350 nM | 1650 | Cc1cc(CCC(=O)O)ccc1OCC1=C(c2cnn(C)c2)CCC(F)(F)C1 [Compound 546, 3-[4-[[5,5-difluoro-2-(1-methylpyrazol-4-yl)cyclohexen-1-yl]methoxy]-3-methyl-phenyl]Propanoic Acid]
16 | 207 | > 5000 nM | 215 | O=C(O)CCc1cc(F)c(OCC2=C(c3ccc(F)cc3F)CCC(F)(F)C2)c(F)c1 [Compound 536, 3-[4-[[2-(2,4-difluorophenyl)-5,5-difluoro-cyclohexen-1-yl]methoxy]-3,5-difluoro-phenyl]Propanoic Acid]
17 | 44 | > 5000 nM | 147 | O=C(O)CCc1ccc(OCC2=C(c3ccc(Cl)cc3)CCC2)c(Cl)c1Cl [Compound 99, 3-[2,3-dichloro-4-[[2-(4-chlorophenyl)cyclopenten-1-yl]methoxy]phenyl]Propanoic Acid]
18 | 222 | 3310 nM | 772 | Cc1cc(OCC2=C(c3ccc(Cl)cc3)CCC(F)(F)C2)ccc1CCC(=O)O [Compound 519, 3-[4-[[2-(4-chlorophenyl)-5,5-difluoro-cyclohexen-1-yl]methoxy]-2-methyl-phenyl]Propanoic Acid]
19 | 49 | > 5000 nM | 40 | Cc1c(CCC(=O)O)ccc(OCC2=C(c3ccc(F)cc3F)CC(F)(F)C2)c1C [Compound 173, 3-[4-[[2-(2,4-difluorophenyl)-4,4-difluoro-cyclopenten-1-yl]methoxy]-2,3-dimethyl-phenyl]Propanoic Acid]
20 | 80 | > 5000 nM | 56 | O=C(O)CCc1ccc(OCC2=C(c3ccc(F)cc3)CC(F)(F)C2)c(Cl)c1 [Compound 203, 3-[3-chloro-4-[[4,4-difluoro-2-(4-fluorophenyl)cyclopenten-1-yl]methoxy]phenyl]Propanoic Acid]
21 | 381 | > 5000 nM | 1310 | Cc1c(CCC(=O)O)ccc(OCC2=C(c3ccc(C#N)s3)CCC(F)(F)C2)c1C [Compound 558, 3-[4-[[2-(5-cyano-2-thienyl)-5,5-difluoro-cyclohexen-1-yl]methoxy]-2,3-dimethyl-phenyl]Propanoic Acid]
22 | 191 | > 5000 nM | 287 | O=C(O)CCc1cc(F)c(OCC2=C(c3ccc(Cl)s3)CCC(F)(F)C2)c(F)c1 [Compound 543, 3-[4-[[2-(5-chloro-2-thienyl)-5,5-difluoro-cyclohexen-1-yl]methoxy]-3,5-difluoro-phenyl]Propanoic Acid]
23 | 525 | 2340 nM | 727 | Cc1ncc(C2=C(COc3ccc(CCC(=O)O)c(C)c3C)CC(F)(F)CC2)s1 [Compound 553, 3-[4-[[5,5-difluoro-2-(2-methylthiazol-5-yl)cyclohexen-1-yl]methoxy]-2,3-dimethyl-phenyl]Propanoic Acid]
24 | 215 | 131 nM and 182 nM | 491 | O=C(O)CCc1ccc(OCC2=C(c3ccc(Cl)cc3)CCC2)cc1C(F)(F)F [Compound 39, 3-[4-[[2-(4-chlorophenyl)cyclopenten-1-yl]methoxy]-2-(trifluoromethyl)phenyl]Propanoic Acid]
25 | 482 | 642 nM | 437 | Cc1ncc(C2=C(COc3ccc(CCC(=O)O)cc3C)CC(F)(F)CC2)s1 [Compound 550, 3-[4-[[5,5-difluoro-2-(2-methylthiazol-5-yl)cyclohexen-1-yl]methoxy]-3-methyl-phenyl]Propanoic Acid]
26 | 192 | > 5000 nM | 292 | O=C(O)CCc1cc(F)c(OCC2=C(c3ccccc3)CCC(F)(F)C2)c(F)c1 [Compound 539, 3-[4-[(5,5-difluoro-2-phenyl-cyclohexen-1-yl)methoxy]-3,5-difluoro-phenyl]Propanoic Acid]
27 | 299 | > 5000 nM | 519 | O=C(O)CCc1cc(F)c(OCC2=C(c3ccco3)CCC(F)(F)C2)c(F)c1 [Compound 569, 3-[4-[[5,5-difluoro-2-(2-furyl)cyclohexen-1-yl]methoxy]-3,5-difluoro-phenyl]Propanoic Acid]
28 | 309 | > 5000 nM | 532 | O=C(O)CCc1cc(F)c(OCC2=C(c3ccc(F)c(F)c3)CCC(F)(F)C2)c(F)c1 [Compound 533, 3-[4-[[2-(3,4-difluorophenyl)-5,5-difluoro-cyclohexen-1-yl]methoxy]-3,5-difluoro-phenyl]Propanoic Acid]
